From US20160297820A1, “DIMERIZER COMPOUND” (AGENCY FOR SCIENCE, TECHNOLOGY AND RESEARCH, priority 2013, published 2016)
Changes are numbered by the printed parent chain.

Key:
[1] = tested on: SNAP-Gal4 and CLIP-AD2 (firefly luciferase under the control of 9 UAS elements); test: Luciferase up-regulation through dimerization of SNAP-Gal4 and CLIP-AD2 in transfected HEK293 cells (pGL4.35 reporter); format: cell-based; conditions: for luciferase expression after UV illumination: 20 μM, 96-well plate, 365 nm UV for 10 minutes just after application, harvested one day after, FIG. 8d; for luciferase production: HEK293, harvested 24 hours after treatment, FIG. 8a
From the text: pGL4.35 (obtained from Promega of Singapore) contains firefly luciferase under the control of 9 UAS elements. SNAP was amplified from pSNAPf with SNAP-XhoI-C and SNAP NheI N; CLIP from pCLIPf with NheI NLC CLIP and SNAP-XhoI-C; Gal4 from pCMV-Gal4 with Gal4 HisTag BamHI and SNAP-Gal4 N; activation domains (AD2) from pHet-Act2-1 with SNAP-p65AD-HSF1AD N and p65 AD-HSF1AD HisTag BamHI. The individual PCR reactions were combined by SOEing PCR (Splicing by Overlap Extension) to make SNAP-Gal4 and CLIP-AD2 PCR products. These were then cloned into peGFP-C1 with the NheI and BamHI sites, removing eGFP in the process. Both constructs contained the nuclear localizing signal.
(§1) HEK293 cells were obtained from ATCC and grown in DMEM medium supplemented by 10% FCS and penicillin-streptomycin at 37° C. and 5% carbon dioxide. All experiments performed were carried out in 24 well plates seeded with 1×10^5 cells per well. Transfection was performed with Lipofectamine 2000 (Invitrogen™, Life Technologies of Singapore) as per manufacturer's instructions the day after seeding. Medium was changed the day after transfection.
(§2) The dimerizers (or Compounds 1 and 2) were dissolved to 1 mM in DMSO and diluted further with DMSO so all applications were done by adding 4 μl of DMSO with compound 1 dissolved in it to 400 μl of medium for each well. Compound 1 was added at the mentioned concentration two days after transfection and incubated for 3 to 6 hours before the cells were harvested with RIPA Lysis and Extraction buffer (from Thermo Fisher Scientific Inc of Illinois of the United States of America). Compound 2 was added at the mentioned concentration three days after transfection and incubated for a specified duration before the cells were harvested.
HEK293 cells (in a 24-well plate) transfected with 400 ng pSNAP-Gal4 (Gal4 is a DNA-binding domain fused to SNAP), 200 ng pCLIP-AD2 (AD2 is a transcriptional activator fused to CLIP) and 100 ng pGL4.35 (GL4.35 is a luciferase reporter construct containing nine Gal4 binding motif for gene activation) were treated with stated amounts of either Compound 1 or 2 in 400 μl medium 1 day after transfection. Cells were harvested 24 hours after treatment and the levels of luciferase measured. FIG. 7 is a schematic diagram showing the up-regulation of luciferase.
Here, the cells were transfected as above and 8 μM of compound 2 was added to the cells one day after transfection. One day after, the cells were either illuminated with a fluorescent lamp or with a 365 nm UV lamp for 5 minutes. 0, 6, 24 or 48 hours later, the cells were harvested and the levels of luciferase measured.
The cells were transfected as above and 10 μM of compound 2 was added to the cells one day after transfection. One day after, the cells were illuminated with a 365 nm UV lamp for 10 minutes. […] Experiments were carried out in triplicates. The purpose of this experiment is to use a slightly higher amount of compound 2 and a longer UV irradiation time to optimize the linker cleavage.
HEK293 cells were transfected with the same ratio of plasmids in a 96-well plate and treated with 2% DMSO, 20 μM compound 1 or 20 μM compound 2 one day after transfection. Just after application, some of the cells were illuminated with 365 nm UV for 10 minutes. One day after, the cells were harvested.

SNAP-eGFP and CLIP-eGFP = molecular target: T1, SNAP-eGFP and CLIP-eGFP (Homo sapiens, UniProt P16455, A121V/A127T/A154D/C150Q/C62A/E30R/G131K/G131N/G132T/G153L/G153S/K125A/K32I/L33F/M134L/M60I/N157G/N157P/Q115S/Q116H/R128A/R135D/R135S/S151G/S152D/S159E/S159L/Y114E); test: Dimerization of SNAP-eGFP and CLIP-eGFP in transfected HEK293 cells, western blot against eGFP; format: cell-based
T1 construct: host or cells: HEK293
T1 sequence (P16455 1-182 E30R/K32I/L33F/C62A/Q115S/Q116H/K125A/A127T/R128A/G131K/G132T/M134L/R135S/C150Q/S151G/S152D/G153L/A154D/N157G/S159E limits assumed): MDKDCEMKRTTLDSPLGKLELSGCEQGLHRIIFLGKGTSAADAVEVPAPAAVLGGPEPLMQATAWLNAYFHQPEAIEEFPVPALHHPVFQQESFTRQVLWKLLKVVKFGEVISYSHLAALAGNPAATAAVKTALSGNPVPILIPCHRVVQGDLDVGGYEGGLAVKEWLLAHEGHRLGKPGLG
T1 sequence (P16455 1-182 E30R/K32I/L33F/M60I/C62A/Y114E/Q115S/Q116H/A121V/K125A/A127T/R128A/G131N/G132T/M134L/R135D/C150Q/S151G/S152D/G153S/A154D/N157P/S159L limits assumed): T1 sequence (P16455 1-182 E30R/K32I/L33F/C62A/Q115S/Q116H/K125A/A127T/R128A/G131K/G132T/M134L/R135S/C150Q/S151G/S152D/G153L/A154D/N157G/S159E limits assumed) with M60I, Y114E, A121V, K131N, S135D, L153S, G157P, E159L
From the text: Mammalian expression vectors for SNAP-eGFP and CLIP-eGFP were constructed from pSNAPf and pCLIPf (obtained from New England Biolabs of Singapore). eGFP was amplified using primers XhoI eGFP F and NotI eGFP R from pEGFP-NAD. The amplified DNA fragment was digested using XhoI/NotI and cloned into pSNAPf and pCLIPf for C-terminal fused eGFP-SNAP and eGFP-CLIP constructs respectively.
as §1
as §2, with “harvested. […]” for “harvested.”
HEK293 cells were transfected with 250 ng of SNAP-eGFP and CLIP-eGFP. 3 days after transfection, increasing concentrations of 0.1 to 10 μM (0.1 μM, 0.4 μM, 1 μM, 4 μM, and 10 μM) of photocleavable dimerizer (Compound 2) were applied to the cells with fresh medium and the cells were harvested 6 hours after. […] The cleaved samples were equivalent volumes of uncleaved samples subjected to 365 nm illumination for 10 minutes.

reversal of dimerization by 365 nm illumination (SNAP-eGFP and CLIP-eGFP; 365 nm illumination for 10 minutes, FIG. 6d)	stability of the dimer in the cell (no change in dimerization) (SNAP-eGFP and CLIP-eGFP; HEK293, 5 μM, FIG. 6c)	time after application to maximal dimerization (SNAP-eGFP and CLIP-eGFP; HEK293, 5 μM, FIG. 6c)	time after application to near saturation of dimerization (SNAP-eGFP and CLIP-eGFP; HEK293, 5 μM, FIG. 6c)	dimerization of SNAP-eGFP and CLIP-eGFP (specificity) (SNAP-eGFP and CLIP-eGFP; HEK293, SNAP-eGFP and CLIP-eGFP together vs either alone, 0, 5 or 20 μM, harvested 6 hours after, FIG. 6a)	cell penetration (SNAP-eGFP and CLIP-eGFP; HEK293 cells in culture, applied with DMSO)	concentration at which dimerization occurs (SNAP-eGFP and CLIP-eGFP; HEK cells, 0.1 nM to 10,000 nM applied, harvested 3 hours after, FIG. 6b)	dose dependence of heterodimerization (SNAP-eGFP and CLIP-eGFP; HEK cells, 0.1 nM to 10,000 nM, harvested 3 hours after, FIG. 6b)	Structure (SMILES)	expression of luciferase, UV illumination compared to fluorescent lamp ([1]; 8 μM, 365 nm UV lamp for 5 minutes, harvested 0, 6, 24 or 48 hours later, FIG. 8b)	luciferase expression after UV illumination [1]	luciferase upregulation after exposure to UV illumination ([1]; FIG. 8b to FIG. 8d)	luciferase production [1]	induction of dimerization of SNAP-eGFP and CLIP-eGFP (SNAP-eGFP and CLIP-eGFP; HEK293, 0.1 to 10 μM, harvested 6 hours after, FIG. 6d)
partially reversing dimerization	–	–	–	–	–	–	–	COc1cc(C(C)NC(=O)CCCC(=O)NCc2ccc(COc3nc(N)nc4[nH]cnc34)cc2)c([N+](=O)[O-])cc1OCCCC(=O)NCCOCCOCCOCCNC(=O)NCc1ccc(COc2nccc(N)n2)cc1 (stereo not drawn) [Compound 2]	lower expression of luciferase	decreased luciferase expression	less effective	luciferase was produced	could induce dimerization at lower concentrations than compound 1
–	≥ 3 days	≤ 24 h	3 h	heterodimerization occurred specifically	could penetrate cells in culture	400 nM	dose-dependent manner	Nc1ccnc(OCc2ccc(CNC(=O)NCCOCCOCCOCCNC(=O)CCCC(=O)NCc3ccc(COc4nc(N)nc5[nH]cnc45)cc3)cc2)n1 [Compound 1]	–	did not	–	produced in a dose-dependent fashion	–
